Organism: Gallus gallus
Test: Tested for anti-coccidial activity
Type: functional

`CSc1ccc(Oc2c(C)cc(-n3ncc(=O)[nH]c3=O)cc2C)cc1` and `CSc1ccc(Oc2c(C)cc(-n3ncc(=O)[nH]c3=O)cc2C)cc1C` are within 0.2 log units of each other in “Log 1/MEC” value: 2.25 for the first, 2.27 for the second.

Going from `Cc1cc(-n2ncc(=O)[nH]c2=O)ccc1Oc1ccc(S(C)(=O)=O)cc1` to `Cc1cc(-n2ncc(=O)[nH]c2=O)ccc1Oc1ccc(Cl)cc1`, the “Log 1/MEC” value falls from 1.97 to 0.74.

Going from `Cc1cc(C)cc(-n2ncc(=O)[nH]c2=O)c1` to `Cc1cc(Cl)cc(-n2ncc(=O)[nH]c2=O)c1`, the “Log 1/MEC” value rises from 0.86 to 1.2.

Going from `COc1c(Cl)cc(-n2ncc(=O)[nH]c2=O)cc1Cl` to `O=c1cnn(-c2cc(Cl)cc(Cl)c2)c(=O)[nH]1`, the “Log 1/MEC” value rises from 0.06 to 1.81.

`O=c1cnn(-c2ccc(F)c(C(F)(F)F)c2)c(=O)[nH]1` and `O=c1cnn(-c2ccc(Br)c(C(F)(F)F)c2)c(=O)[nH]1` are within 0.2 log units of each other in “Log 1/MEC” value: 1.26 for the first, 1.35 for the second.

Going from `O=c1cnn(-c2cc(Cl)c(S(=O)(=O)c3ccc(Cl)cc3)c(Cl)c2)c(=O)[nH]1` to `Cc1cc(-n2ncc(=O)[nH]c2=O)cc(Cl)c1S(=O)(=O)c1ccc(Cl)cc1`, the “Log 1/MEC” value falls from 2.94 to 1.71.

Going from `O=c1cnn(-c2ccc(Oc3ccccc3)cc2)c(=O)[nH]1` to `O=c1cnn(-c2ccc(S(=O)(=O)c3ccccc3)cc2)c(=O)[nH]1`, the “Log 1/MEC” value rises from -0.25 to 1.04.

First: Cc1cc(-n2ncc(=O)[nH]c2=O)cc(C)c1S(=O)(=O)c1ccc(Cl)cc1
Second: Cc1cc(-n2ncc(=O)[nH]c2=O)cc(C)c1C(=O)c1ccc(Cl)cc1
The “Log 1/MEC” value of the first is higher: 2.59 for the first, 1.38 for the second.

Compared with `Cc1cc(-n2ncc(=O)[nH]c2=O)ccc1Oc1ccc(Br)cc1`, `CSc1ccc(Oc2ccc(-n3ncc(=O)[nH]c3=O)cc2C)cc1` is higher in “Log 1/MEC” value: 1.7 for the first, 2.23 for the second.

Going from `O=c1cnn(-c2ccc(Oc3ccc(I)cc3)c(Cl)c2)c(=O)[nH]1` to `CSc1ccc(Oc2ccc(-n3ncc(=O)[nH]c3=O)cc2Cl)cc1`, the “Log 1/MEC” value rises from 1.77 to 1.98.

First: CC(=O)c1ccc(Oc2c(C)cc(-n3ncc(=O)[nH]c3=O)cc2Cl)cc1
Second: Cc1cc(-n2ncc(=O)[nH]c2=O)cc(Cl)c1Oc1ccc(Cl)cc1
The “Log 1/MEC” value of the first is higher: 2.27 for the first, 1.98 for the second.

Going from `N#Cc1cccc(-n2ncc(=O)[nH]c2=O)c1` to `O=c1cnn(-c2cccc(Cl)c2)c(=O)[nH]1`, the “Log 1/MEC” value falls from 0.85 to 0.25.

Compared with `Cc1cc(-n2ncc(=O)[nH]c2=O)cc(C)c1[S+]([O-])c1ccc(Cl)cc1` (centres undefined), `Cc1cc(-n2ncc(=O)[nH]c2=O)cc(C)c1Sc1ccc(Cl)cc1` [TIAZURIL] is higher in “Log 1/MEC” value: 2.58 for the first, 2.86 for the second.

Compared with `Cc1cc(-n2ncc(=O)[nH]c2=O)cc(Cl)c1Oc1ccc(S(=O)(=O)NC2CC2)cc1Cl`, `CCN(C)S(=O)(=O)c1ccc(Oc2c(C)cc(-n3ncc(=O)[nH]c3=O)cc2Cl)c(Cl)c1` is higher in “Log 1/MEC” value: 1.51 for the first, 2.11 for the second.

Compared with `Cc1cc(-n2ncc(=O)[nH]c2=O)ccc1C(O)c1ccccc1` (centres undefined), `O=c1cnn(-c2ccc(C(O)c3ccc(Cl)cc3)c(Cl)c2)c(=O)[nH]1` (centres undefined) is higher in “Log 1/MEC” value: 1.01 for the first, 2.26 for the second.

Compared with `O=c1cnn(-c2ccc(S(=O)(=O)c3ccc(Br)cc3)cc2)c(=O)[nH]1`, `O=c1cnn(-c2ccc(S(=O)(=O)c3ccc(Cl)cc3)cc2)c(=O)[nH]1` is higher in “Log 1/MEC” value: 1.71 for the first, 1.96 for the second.

`Cc1cc(-n2ncc(=O)[nH]c2=O)cc(Cl)c1Sc1ccc(Cl)cc1` and `O=c1cnn(-c2cc(Cl)c(Sc3ccc(Cl)cc3)c(Cl)c2)c(=O)[nH]1` are within 0.2 log units of each other in “Log 1/MEC” value: 3.28 for the first, 3.3 for the second.

First: COc1cc(OC)cc(-n2ncc(=O)[nH]c2=O)c1
Second: COc1cc(-n2ncc(=O)[nH]c2=O)cc(OC)c1OC
The “Log 1/MEC” value of the first is higher: -0.3 for the first, -0.55 for the second.

Compared with `O=C(c1ccc(Cl)cc1)c1c(Cl)cc(-n2ncc(=O)[nH]c2=O)cc1Cl`, `O=c1cnn(-c2cc(Cl)c(Cc3ccc(Cl)cc3)c(Cl)c2)c(=O)[nH]1` is higher in “Log 1/MEC” value: 2.9 for the first, 3.18 for the second.

Going from `CS(=O)(=O)c1ccc(-n2ncc(=O)[nH]c2=O)cc1` to `O=c1cnn(-c2ccc([N+](=O)[O-])cc2)c(=O)[nH]1`, the “Log 1/MEC” value rises from -0.27 to -0.03.

Going from `Cc1cc(-n2ncc(=O)[nH]c2=O)cc(C)c1S(=O)(=O)N1CCOCC1` to `O=c1cnn(-c2cc(Cl)c(S(=O)(=O)N3CCOCC3)c(Cl)c2)c(=O)[nH]1`, the “Log 1/MEC” value falls from 1.39 to 1.13.

Compared with `O=c1cnn(-c2ccc(Sc3ccc4ccccc4c3)c(Cl)c2)c(=O)[nH]1`, `O=c1cnn(-c2ccc(Sc3ccc(Cl)cc3)c(Cl)c2)c(=O)[nH]1` is higher in “Log 1/MEC” value: 0.48 for the first, 2.26 for the second.

`Cc1cc(-n2ncc(=O)[nH]c2=O)ccc1Oc1ccc(Cl)cc1Cl` and `O=c1cnn(-c2ccc(Oc3ccc(Cl)cc3Cl)c(Cl)c2)c(=O)[nH]1` are within 0.2 log units of each other in “Log 1/MEC” value: 1.69 for the first, 1.71 for the second.

Going from `N#CC(c1ccc(Cl)cc1)c1c(Cl)cc(-n2ncc(=O)[nH]c2=O)cc1Cl` (centres undefined) [DICLAZURIL] to `O=c1cnn(-c2ccc(Cc3ccc(Cl)cc3)c(Cl)c2)c(=O)[nH]1`, the “Log 1/MEC” value falls from 3.61 to 1.64.

Compared with `CC(=O)c1ccc(Sc2c(C)cc(-n3ncc(=O)[nH]c3=O)cc2Cl)cc1`, `Cc1cc(-n2ncc(=O)[nH]c2=O)cc(Cl)c1Oc1ccc(C(C)O)cc1` (centres undefined) is lower in “Log 1/MEC” value: 3.19 for the first, 2.27 for the second.

First: O=c1cnn(-c2cccc(C(F)(F)F)c2)c(=O)[nH]1
Second: O=c1cnn(-c2ccccc2)c(=O)[nH]1
The “Log 1/MEC” value of the first is higher: 0.93 for the first, -0.42 for the second.

Compared with `O=c1cnn(-c2ccc(Oc3ccc4cc(Br)ccc4c3)c(Cl)c2)c(=O)[nH]1`, `O=c1cnn(-c2ccc(S(=O)(=O)N3CCOCC3)c(Cl)c2)c(=O)[nH]1` is lower in “Log 1/MEC” value: 1.77 for the first, 1.09 for the second.

From ChEMBL document CHEMBL1126835, “QSAR's from similarity matrices. Technique validation and application in the comparison of different similarity evaluation methods” (J Med Chem, 1993)
